Results taken from patent US11234968B2, “Use of VCP inhibitor and oncolytic virus in the preparation of an anti-tumor drug” (priority 2016, dated 2022).
Several values for one entry are separate records, joined by “and”; a condition that tells them apart may be missing. Equal values may be shown once.

Key:
[1] = tested on: human liver cancer cell Hep3B; experiment: MTT survival rate of Hep3B cells, VCP inhibitor and/or M1 virus (Example 2); format: cell-based
Description: b) Reaction of MTT (3-(4,5-dimethylthiazol-2-yl)-2,5-diphenyltetrazolium bromide) with succinate dehydrogenase in the cells as follows: 48 hours after culture, 20 μl MTT (5 mg/ml) was added into each well, and was incubated for further 4 hours.
c) Dissolution of formazan particles formed in the cells was accomplished as follows: the supernatant was carefully sucked off, 100 μl/well DMSO was added to dissolve the formed crystals, and was shaken in a microoscillator for 5 minutes. Then, the optical density (OD value) of each well was detected in an enzyme linked detector at a wavelength of 570 nm. The experiments were repeated for 3 times for each group. The survival rate of the cells=OD value of the drug treatment group/OD value of the control group×100%.
Single and double asterisks in FIGS. 2(A) and 2(B) indicate results with one way ANOVA analysis showing a statistical difference with a single asterisk (*) indicating P<0.05 and a double asterisk (**) indicating P<0.01.

[2] = tested on: human liver cancer cell Hep3B; experiment: Morphological observation by phase contrast microscope (Example 1); format: cell-based; settings: Eeyarestatin I 5 μM and/or M1 virus MOI=0.001; 48 hours after treatment
Description: b) Cell treatment and morphological observation: The cells in exponential growth phase were selected and added into a DMEM complete culture medium (containing 10% fetal bovine serum, 1% penicillin/streptomycin (Life Technologies)) to prepare a cell suspension. The cells were inoculated into a 24-well culture plate at a density of 2.5×10^4/well. Each well was then treated by addition of Eeyarestatin I (5 μM), M1 virus (MOI=0.001) or Eeyarestatin I (5 μM) plus M1 virus (MOI=0.001) or left untreated as a control.

[3] = tested on: endoplasmic reticulum stress markers (IRE1, XBP1(S), BiP, p-PERK, p-eIF2a, ATF6, poly-ub; caspase-12, CHOP, p-JNK); experiment: Western blot of endoplasmic reticulum stress markers and ER stress-associated apoptosis in Hep3B (Example 5); format: cell-based, human; settings: Eeyarestatin I 5 μM and/or M1 virus MOI=0.001
Description: The cells in the exponential growth phase were selected and added into a DMEM complete culture medium to prepare a cell suspension. The cells were inoculated into a 60 mm culture dish at a density of 1×10^6. After 12 hours the cells were completely adherent to the wall. […] The dose was used as follows: M1 virus (MOI=0.001) that infected cells; Eeyarestatin I (5 μM).
After the time of drug treatment was set up, the protein samples were collected to carry out the Western blot for detecting the marker of endoplasmic reticulum stress (IRE1 XBP1(S), BiP, p-PERK, p-eIF2a, ATF6, poly-ub); and the activation of the pathway of endoplasmic reticulum stress-associated apoptosis (caspase-12, CHOP, p-JNK).

Compound | relative survival rates ([1]; CB-5083 alone compared to combination with M1 (MOI=0.001), 0.124 to 2 μM, FIG. 2(B)) | reduction in cell number ([1]; 5 μM alone) | survival rate of tumor cells ([1]; 5 μM alone, 48 hours, MTT) | morphology of the cells [2] | endoplasmic reticulum stress-associated markers and apoptosis pathway [3]
Cc1cc2c(C(N)=O)cccc2n1-c1nc2c(c(NCc3ccccc3)n1)COCC2 [CB-5083] | significantly higher relative survival rates | – | – | – | –
CC1(C)C(N(O)C(=O)Nc2ccc(Cl)cc2)N(c2ccc(Cl)cc2)C(=O)N1CC(=O)N/N=C/C=C/c1ccc([N+](=O)[O-])o1 (centres unmarked) [Eeyarestatin I] | – | 12.8% | 87.2% and 78.2% | morphology of the cells was not changed significantly | induce the increase of endoplasmic reticulum stress-associated markers such as IREI, XBPI (S), p-PERK, p-eIF2a
